Laboratory results as given in ChEMBL document CHEMBL6120941, “Discovery of SIRT1-Activating Hydrogen Sulfide Donating Derivatives for Efficient Resistant of Myocardial Ischemic Injury” (J Med Chem, 2024).
The source made the active and inactive calls. The rule behind the calls is not given here.

How the values were obtained:
[1] = test system: H9c2; assay: Cardioprotective activity against CoCl2-induced cellular hypoxia injury in rat H9c2 cells assessed as cell viability at 2.5 uM incubated for 24 hrs by CCK-8 assay (reference value: 51.80 +/- 2.58 %); assay type: functional; conditions: read-out: Activity
[2] = test system: H9c2; assay: Cardioprotective activity against CoCl2-induced cellular hypoxia injury in rat H9c2 cells assessed as cell viability at 1.25 uM incubated for 24 hrs by CCK-8 assay (reference value: 51.80 +/- 2.58 %); assay type: functional; conditions: read-out: Activity
[3] = test system: H9c2; assay: Cardioprotective activity against CoCl2-induced cellular hypoxia injury in rat H9c2 cells assessed as cell viability at 0.625 uM incubated for 24 hrs by CCK-8 assay (reference value: 51.80 +/- 2.58 %); assay type: functional; conditions: read-out: Activity
[4] = test system: H9c2; assay: Cardioprotective activity against CoCl2-induced cellular hypoxia injury in rat H9c2 cells assessed as cell viability at 5 uM incubated for 24 hrs by CCK-8 assay (reference value: 51.80 +/- 2.58 %); assay type: functional; conditions: read-out: Activity
[5] = test system: H9c2; assay: Cardioprotective activity against CoCl2-induced cellular hypoxia injury in rat H9c2 cells assessed as increase in cell viability at 30 uM incubated for 24 hrs by CCK-8 assay; assay type: functional, cell-based
[6] = test system: H9c2; assay: Cardioprotective activity against CoCl2-induced cellular hypoxia injury in rat H9c2 cells assessed as cell viability at 10 uM incubated for 24 hrs by CCK-8 assay (reference value: 51.80 +/- 2.58 %); assay type: functional; conditions: read-out: Activity

## CC(C)(O)[C@H]1CC[C@@](C)([C@H]2CC[C@]3(C)[C@@H]2[C@H](O)C[C@@H]2[C@@]4(C)CC[C@H](O)C(C)(C)[C@@H]4[C@@H](O)C[C@]23C)O1
[1]
  viability at 2.5 µM: 57%
[2]
  viability at 1.25 µM: 55.6%
[3]
  viability at 0.625 µM: 56.5%
[4]
  viability at 5 µM: 55.6%
[5]
  Activity: inactive
[6]
  viability at 10 µM: 61.5%

## CC(C)(O)[C@H]1CC[C@@](C)([C@H]2CC[C@]3(C)[C@@H]2[C@H](O)C[C@@H]2[C@@]4(C)CC[C@H](OC(=O)CCC(=O)Oc5ccc(-c6cc(=S)ss6)cc5)C(C)(C)[C@@H]4CC[C@]23C)O1
[1]
  viability at 2.5 µM: 67.5%
[2]
  viability at 1.25 µM: 66.8%
[3]
  viability at 0.625 µM: 65.1%
[4]
  viability at 5 µM: 69.5%
[5]
  Activity: inactive
[6]
  viability at 10 µM: 72.5%

## CC(C)(O)[C@H]1CC[C@@](C)([C@H]2CC[C@]3(C)[C@@H]2[C@H](O)C[C@@H]2[C@@]4(C)CC[C@H](OC(=O)c5ccc(N=C=S)cc5)C(C)(C)[C@@H]4[C@@H](O)C[C@]23C)O1
[1]
  viability at 2.5 µM: 57.1%
[2]
  viability at 1.25 µM: 59.6%
[3]
  viability at 0.625 µM: 52.5%
[4]
  viability at 5 µM: 58.6%
[5]
  Activity: inactive
[6]
  viability at 10 µM: 58.5%

## CC(C)(O)[C@@H]1CC[C@@](C)([C@H]2CC[C@]3(C)[C@@H]2[C@H](O)C[C@@H]2[C@@]4(C)CC[C@H](O)C(C)(C)[C@@H]4[C@@H](O)C[C@]23C)O1 [PROTOPANAXATRIOL OXIDE II]
[1]
  viability at 2.5 µM: 56.7%
[2]
  viability at 1.25 µM: 54%
[3]
  viability at 0.625 µM: 52%
[4]
  viability at 5 µM: 69.6%
[5]
  Activity: inactive
[6]
  viability at 10 µM: 73.4%

## C=CCSSCCC(=O)O[C@H]1CC[C@]2(C)[C@H]3C[C@@H](O)[C@@H]4[C@@H]([C@]5(C)CC[C@H](C(C)(C)O)O5)CC[C@@]4(C)[C@]3(C)C[C@H](O)[C@H]2C1(C)C
[1]
  viability at 2.5 µM: 62.9%
[2]
  viability at 1.25 µM: 64.5%
[3]
  viability at 0.625 µM: 68.1%
[4]
  viability at 5 µM: 66.5%
[5]
  Activity: inactive
[6]
  viability at 10 µM: 69.7%

## C=CCSSCCC(=O)O[C@H]1CC[C@]2(C)[C@H]3C[C@@H](O)[C@@H]4[C@@H]([C@@](C)(O)CCC=C(C)C)CC[C@@]4(C)[C@]3(C)CC[C@H]2C1(C)C
[1]
  viability at 2.5 µM: 42.5%
[2]
  viability at 1.25 µM: 50.8%
[3]
  viability at 0.625 µM: 46%
[4]
  viability at 5 µM: 60.6%
[5]
  Activity: inactive
[6]
  viability at 10 µM: 62.7%

## CC(C)=CCC[C@](C)(O)[C@H]1CC[C@]2(C)[C@@H]1[C@H](O)C[C@@H]1[C@@]3(C)CC[C@H](O)C(C)(C)[C@@H]3[C@@H](O)C[C@]12C
[1]
  viability at 2.5 µM: 67.3%
[2]
  viability at 1.25 µM: 66.8%
[3]
  viability at 0.625 µM: 66%
[4]
  viability at 5 µM: 71.4%
[5]
  Activity: inactive
[6]
  viability at 10 µM: 71.6%

## O=C(Nc1ccccc1-c1cn2c(CN3CCNCC3)csc2n1)c1cnc2ccccc2n1
[1]
  viability at 2.5 µM: 80.6%
[2]
  viability at 1.25 µM: 73.3%
[3]
  viability at 0.625 µM: 71.7%
[4]
  viability at 5 µM: 83.3%
[6]
  viability at 10 µM: 88.4%

## CC(C)(O)[C@@H]1CC[C@@](C)([C@H]2CC[C@]3(C)[C@@H]2[C@H](O)C[C@@H]2[C@@]4(C)CC[C@H](OC(=O)c5ccc(N=C=S)cc5)C(C)(C)[C@@H]4CC[C@]23C)O1
[1]
  viability at 2.5 µM: 67.1%
[2]
  viability at 1.25 µM: 62.2%
[3]
  viability at 0.625 µM: 62.2%
[4]
  viability at 5 µM: 70%
[5]
  Activity: inactive
[6]
  viability at 10 µM: 77.1%

## CC(C)(O)[C@@H]1CC[C@@](C)([C@H]2CC[C@]3(C)[C@@H]2[C@H](O)C[C@@H]2[C@@]4(C)CC[C@H](OC(=O)c5ccc(N=C=S)cc5)C(C)(C)[C@@H]4[C@@H](O)C[C@]23C)O1
[1]
  viability at 2.5 µM: 58.8%
[2]
  viability at 1.25 µM: 55.5%
[3]
  viability at 0.625 µM: 56.9%
[4]
  viability at 5 µM: 61.4%
[5]
  Activity: inactive
[6]
  viability at 10 µM: 63.1%

## O=C(O)c1ccc(N=C=S)cc1
[1]
  viability at 2.5 µM: 59.3%
[2]
  viability at 1.25 µM: 53.7%
[3]
  viability at 0.625 µM: 51.1%
[4]
  viability at 5 µM: 59.5%
[5]
  Activity: inactive
[6]
  viability at 10 µM: 63.5%

## C=CCSSCCC(=O)O
[1]
  viability at 2.5 µM: 68.4%
[2]
  viability at 1.25 µM: 57.5%
[3]
  viability at 0.625 µM: 51.7%
[4]
  viability at 5 µM: 71%
[5]
  Activity: inactive
[6]
  viability at 10 µM: 80.3%

## CC(C)=CCC[C@](C)(O)[C@H]1CC[C@]2(C)[C@@H]1[C@H](O)C[C@@H]1[C@@]3(C)CC[C@H](OC(=O)c4ccc(N=C=S)cc4)C(C)(C)[C@@H]3CC[C@]12C
[1]
  viability at 2.5 µM: 60.7%
[2]
  viability at 1.25 µM: 61%
[3]
  viability at 0.625 µM: 54.7%
[4]
  viability at 5 µM: 67.5%
[5]
  Activity: inactive
[6]
  viability at 10 µM: 61.5%

## CC(C)(O)[C@H]1CC[C@@](C)([C@H]2CC[C@]3(C)[C@@H]2[C@H](O)C[C@@H]2[C@@]4(C)CC[C@H](OC(=O)c5ccc(N=C=S)cc5)C(C)(C)[C@@H]4CC[C@]23C)O1
[1]
  viability at 2.5 µM: 67.3%
[2]
  viability at 1.25 µM: 61.6%
[3]
  viability at 0.625 µM: 59.9%
[4]
  viability at 5 µM: 68.3%
[5]
  Activity: inactive
[6]
  viability at 10 µM: 72.9%

## C=CCSSCCC(=O)O[C@H]1CC[C@]2(C)[C@H]3C[C@@H](O)[C@@H]4[C@@H]([C@]5(C)CC[C@H](C(C)(C)O)O5)CC[C@@]4(C)[C@]3(C)CC[C@H]2C1(C)C
[1]
  viability at 2.5 µM: 73.6%
[2]
  viability at 1.25 µM: 72.3%
[3]
  viability at 0.625 µM: 65.7%
[4]
  viability at 5 µM: 76.9%
[5]
  Activity: inactive
[6]
  viability at 10 µM: 74.2%

## CC(C)=CCC[C@](C)(O)[C@H]1CC[C@]2(C)[C@@H]1[C@H](O)C[C@@H]1[C@@]3(C)CC[C@H](O)C(C)(C)[C@@H]3CC[C@]12C
[1]
  viability at 2.5 µM: 67.5%
[2]
  viability at 1.25 µM: 63%
[3]
  viability at 0.625 µM: 52.5%
[4]
  viability at 5 µM: 67.5%
[5]
  Activity: inactive
[6]
  viability at 10 µM: 68.8%

## O=C(O)CCC(=O)Oc1ccc(-c2cc(=S)ss2)cc1
[1]
  viability at 2.5 µM: 74.3%
[2]
  viability at 1.25 µM: 67.4%
[3]
  viability at 0.625 µM: 66.4%
[4]
  viability at 5 µM: 77.6%
[5]
  Activity: inactive
[6]
  viability at 10 µM: 80.3%

## CC(C)(O)[C@H]1CC[C@@](C)([C@H]2CC[C@]3(C)[C@@H]2[C@H](O)C[C@@H]2[C@@]4(C)CC[C@H](OC(=O)CCC(=O)Oc5ccc(-c6nc(=O)ss6)cc5)C(C)(C)[C@@H]4[C@@H](O)C[C@]23C)O1
[1]
  viability at 2.5 µM: 76%
[2]
  viability at 1.25 µM: 72.5%
[3]
  viability at 0.625 µM: 65.7%
[4]
  viability at 5 µM: 77.3%
[5]
  Activity: inactive
[6]
  viability at 10 µM: 81.5%

## CC(C)(O)[C@@H]1CC[C@@](C)([C@H]2CC[C@]3(C)[C@@H]2[C@H](O)C[C@@H]2[C@@]4(C)CC[C@H](OC(=O)CCC(=O)Oc5ccc(-c6cc(=S)ss6)cc5)C(C)(C)[C@@H]4CC[C@]23C)O1
[1]
  viability at 2.5 µM: 79.6%
[2]
  viability at 1.25 µM: 71.4%
[3]
  viability at 0.625 µM: 68.4%
[4]
  viability at 5 µM: 80%
[5]
  Activity: inactive
[6]
  viability at 10 µM: 82.2%

## CC(C)(O)[C@H]1CC[C@@](C)([C@H]2CC[C@]3(C)[C@@H]2[C@H](O)C[C@@H]2[C@@]4(C)CC[C@H](O)C(C)(C)[C@@H]4CC[C@]23C)O1
[1]
  viability at 2.5 µM: 65.4%
[2]
  viability at 1.25 µM: 66.4%
[3]
  viability at 0.625 µM: 68.7%
[4]
  viability at 5 µM: 66.9%
[5]
  Activity: inactive
[6]
  viability at 10 µM: 75.5%
